Test system: Human epidermal keratinocytes
Experiment: Formation of CE in cultured keratinocytes (amount of CE by visual observation or count under a microscope)
Assay type: cell-based
Design: key: −: No CE formation; ++: CE formation in an amount equal to that in positive control (growth medium) is observed; +++: Clearly more CE formation than in positive control (growth medium) is observed
Conditions: test substance 3% in MEM containing 0.1% bovine serum albumin, cultured 1 week
Procedure: Human epidermal keratinocytes were cultured according to the method of Rheinwald & Green (Cell 6: 331-344, 1975). The cells were cultured in a growth medium (DMEM-Ham's F12 (3:1) containing 10% fetal bovine serum, 0.5 μg/ml hydrocortisone, 5 μg/ml insulin, 10^−10 M cholera toxin, 10 ng/ml epidermal growth factor and 1.8×10^−4 M adenine) up to confluent, the medium was replaced with a medium (MEM containing 0.1% bovine serum albumin) containing a test substance, and culturing was continued for further 1 week. After completion of the culturing, Tris-hydrochloric acid buffer containing dithiothreitol and sodium dodecyl sulfate was added, and the mixture was heated at 100° C. for 10 minutes. The insoluble substance was collected by centrifugation at 4,000 g for 10 minutes. The eluent addition and heating were repeated and thereby soluble components were thoroughly removed. The thus obtained insoluble substance was referred to as CE. The amount of the obtained CE was evaluated by visual observation. Otherwise, the number was counted under a microscope using a cytometer.

SMILES: CC(C)CCCC(C)CCCC(C)CCCCC(C)CCCC(C)CCCC(C)C (stereo not shown) [Squalane]
- CE formation-accelerating effect: −

Reference: US20030072816A1, “Agents improving skin barrier function” (priority 2000, published 2003)
